In ChEMBL document CHEMBL1143967, “Targeted inhibition of hedgehog signaling by cyclopamine prodrugs for advanced prostate cancer” (Bioorg Med Chem, 2008):
Calls of active or inactive are those of the source. The calls are words filed in the database; no cut-off is given here. *1 amine or outer side, *2 acyl side, *3 side chain or, on linkers, in order; H or OH if unused. Where a SMILES comes first, the peptide text is derived from it. The star is where a group is joined. X1 = CC1=C2C[C@H]3[C@@H](CC=C4C[C@@H](O)CC[C@@]43C)[C@@H]2CC[C@]12O[C@@H]1C[C@H](C)CN(*)[C@H]1[C@H]2C; Morpholide = C1CN(*)CCO1; CO = O=C([*:1])[*:2]

Key:
DU-145 [1] = assay: Growth inhibition of human DU145 cells at 10 uM after 96 hrs; assay type: functional, cell-based
DU-145 [2] = assay: Growth inhibition of human DU145 cells at 5 uM after 96 hrs; assay type: functional, cell-based
DU-145 [3] = assay: Increase in growth inhibition of human DU145 cells in presence of PSA after 96 hrs; assay type: functional, cell-based
[4] = Hydrolysis of prodrug assessed as half life in presence PSA; assay type: ADME

t1/2 [4]	Compound	Activity (DU-145 [1])	Activity (DU-145 [2])	Activity (DU-145 [3])
	CC1=C2C[C@H]3[C@@H](CC=C4C[C@@H](O)CC[C@@]43C)[C@@H]2CC[C@]12O[C@@H]1C[C@H](C)CN[C@H]1[C@H]2C	Active	Active	
22 h	CC1=C2C[C@H]3[C@@H](CC=C4C[C@@H](O)CC[C@@]43C)[C@@H]2CC[C@]12O[C@@H]1C[C@H](C)CN(C(=O)[C@H](CCC(N)=O)NC(=O)[C@H](CC(C)C)NC(=O)[C@H](CCCCN)NC(=O)[C@H](CO)NC(=O)[C@H](CO)NC(=O)[C@H](Cc3c[nH]cn3)NC(=O)N3CCOCC3)[C@H]1[C@H]2C ({Morpholide-CO}-HSSKLQ-X1)			Active
3.2 h	CC1=C2C[C@H]3[C@@H](CC=C4C[C@@H](O)CC[C@@]43C)[C@@H]2CC[C@]12O[C@@H]1C[C@H](C)CN(C(=O)[C@H](CCC(N)=O)NC(=O)[C@H](Cc3ccc(O)cc3)NC(=O)[C@H](CCCCN)NC(=O)[C@H](CO)NC(=O)[C@H](CO)NC(=O)N3CCOCC3)[C@H]1[C@H]2C ({Morpholide-CO}-SSKYQ-X1)			
